Source: US5451571A (The Cleveland Clinic Foundation, priority 1994, dated 1995)
No end group written: not given here.

Legend:
[1] = target: T1, angiotensin converting enzyme (ACE) (Canis lupus familiaris, UniProt A0A8I3S3I6); experiment: Tissue ACE activity in dog brain six hours after i.v. MK 422; type: in vivo; conditions: six hours after MK 422 10 mg/kg i.v.
T1 construct: The ACE activity was determined by incubating 10 μl of the supernatants; from tissue; host or cells: dog brainstem, spinal cord, choroid plexus and neurohypophysis punches
T1 sequence (A0A8I3S3I6 31-1241): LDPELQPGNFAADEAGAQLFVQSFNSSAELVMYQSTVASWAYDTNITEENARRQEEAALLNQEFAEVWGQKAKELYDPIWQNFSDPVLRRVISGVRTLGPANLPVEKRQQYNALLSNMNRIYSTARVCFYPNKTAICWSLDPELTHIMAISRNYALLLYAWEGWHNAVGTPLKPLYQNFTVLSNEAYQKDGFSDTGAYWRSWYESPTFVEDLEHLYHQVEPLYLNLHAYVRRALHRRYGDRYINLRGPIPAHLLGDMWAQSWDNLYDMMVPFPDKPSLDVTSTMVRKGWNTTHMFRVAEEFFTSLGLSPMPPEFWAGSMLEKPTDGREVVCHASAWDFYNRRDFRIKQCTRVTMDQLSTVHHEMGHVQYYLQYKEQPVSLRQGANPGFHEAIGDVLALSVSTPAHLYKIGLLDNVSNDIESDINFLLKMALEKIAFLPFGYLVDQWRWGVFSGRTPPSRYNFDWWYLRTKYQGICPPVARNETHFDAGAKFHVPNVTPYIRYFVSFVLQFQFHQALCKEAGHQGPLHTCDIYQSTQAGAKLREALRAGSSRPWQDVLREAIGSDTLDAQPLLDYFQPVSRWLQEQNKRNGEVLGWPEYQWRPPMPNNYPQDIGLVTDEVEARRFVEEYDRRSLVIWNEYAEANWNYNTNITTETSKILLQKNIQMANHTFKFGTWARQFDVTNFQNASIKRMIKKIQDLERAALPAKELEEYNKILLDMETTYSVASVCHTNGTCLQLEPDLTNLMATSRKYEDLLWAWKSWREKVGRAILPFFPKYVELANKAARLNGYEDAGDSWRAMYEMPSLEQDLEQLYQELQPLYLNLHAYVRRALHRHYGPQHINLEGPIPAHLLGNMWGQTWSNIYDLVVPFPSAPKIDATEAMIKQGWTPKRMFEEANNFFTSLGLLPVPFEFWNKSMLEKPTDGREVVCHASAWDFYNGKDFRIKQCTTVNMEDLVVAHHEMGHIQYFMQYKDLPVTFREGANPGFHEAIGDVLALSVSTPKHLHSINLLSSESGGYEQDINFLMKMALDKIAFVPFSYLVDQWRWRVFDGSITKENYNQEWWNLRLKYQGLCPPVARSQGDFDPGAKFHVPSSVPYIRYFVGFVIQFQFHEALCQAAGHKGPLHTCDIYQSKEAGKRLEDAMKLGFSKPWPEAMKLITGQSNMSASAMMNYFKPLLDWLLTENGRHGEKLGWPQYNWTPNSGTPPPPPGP
Description: Experiments were performed on fourteen mongrel dogs weighing 16±2 kg and anesthetized with sodium pentobarbital (30 mg/kg i.v.). […] Ten of the fourteen dogs were given a lethal dose of sodium pentobarbital, and the brain and thoracic portion of the spinal cord (C6-T3) were excised immediately. The brain was removed from four other dogs six hours after a single injection of MK 422 (enalaprilat) at a dose of 10 mg/kg i.v.
Coronal sections (2000 μm thick) from either the brainstem or the spinal cord were laid on a frozen Petri dish placed under the operating microscope. […] Punches from coronal sections of the intermediolateral column of the spinal cord were obtained between C6 and T3. Blocks of tissue were also taken from the area postrema at the obex, the neurohypophysis, and the choroid plexus in the fourth ventricle. Remaining coronal tissue sections were analyzed separately. All tissue samples were kept on dry ice and stored at -70° C. until assayed.
The ACE activity and angiotensin metabolism were measured in tissue samples obtained from five control and four MK 422-treated dogs.
Larger tissue samples were homogenized to a final concentration of 100 mg tissue ml/buffer. The homogenates were centrifuged at 18,000 g for two minutes at 4° C. The ACE activity was determined by incubating 10 μl of the supernatants with 500 μl of an assay solution containing 5 mM Hip-His-Leu (Sigma Chemical, St. Louis, Mo., USA) in 0.4 M sodium borate buffer, pH 8.3, and 0.9 M NaCl for 15 minutes at 37° C.) (Santos R. A. S., Krieger, E. M., Greene, L. J., An Improved Fluorometric Assay of Rat Serum and Plasma Converting Enzyme. […] The product His-Leu was measured fluorometrically (365 nm excitation, 495 emission; Aminco spectrofluorometer, American Instruments, Silver Springs, Md., USA). […] Under these conditions, hydrolysis of the product His-Leu (Sigma) was less than 6% as evaluated indirectly fluorometry (Santos, et al. supra). […] Tissue ACE specific activity was expressed as units corresponding to 1 nmol/min/mg protein.

[2] = target: T1, angiotensin converting enzyme (ACE); experiment: ACE activity assay (Hip-His-Leu, fluorometric) in dog brain tissue homogenates; type: biochemical; conditions: 10 μM MK 422; read-out: inhibition of product released (ACE activity)
Description: Larger tissue samples were homogenized to a final concentration of 100 mg tissue ml/buffer. The homogenates were centrifuged at 18,000 g for two minutes at 4° C. The ACE activity was determined by incubating 10 μl of the supernatants with 500 μl of an assay solution containing 5 mM Hip-His-Leu (Sigma Chemical, St. Louis, Mo., USA) in 0.4 M sodium borate buffer, pH 8.3, and 0.9 M NaCl for 15 minutes at 37° C.) (Santos R. A. S., Krieger, E. M., Greene, L. J., An Improved Fluorometric Assay of Rat Serum and Plasma Converting Enzyme. […] The product His-Leu was measured fluorometrically (365 nm excitation, 495 emission; Aminco spectrofluorometer, American Instruments, Silver Springs, Md., USA). In punches obtained from the brainstem, neurohypophysis, and choroid plexus, the rate of reaction was linear over a 20-minute period and with the volume of the sample assayed (5-15 ul). Under these conditions, hydrolysis of the product His-Leu (Sigma) was less than 6% as evaluated indirectly fluorometry (Santos, et al. supra). […] Tissue ACE specific activity was expressed as units corresponding to 1 nmol/min/mg protein.

[3] = tested on: Wistar Kyoto (WKY) rats; experiment: Blood angiotensin peptides (RIA) after i.v. Ang I in conscious WKY with enzyme inhibitors; type: in vivo, rat
Description: (§1) All experiments were carried out in strict adherence to the principles sponsored by the American Physiological Society. Male 16-week-old SHR(319±4 gm) and WKY(315±4 gm) controls (Charles River, Wilmington, Mass.) were housed in rooms maintained on a 12 hr light-dark cycle. Animals ate a solid diet of rat chow (Purina, Bedford, Ohio) and had free access to water. Cannulas (PE-50 and PE-10, Clay Adams Becton Dickinson, Parsippany, N.J.) were implanted into a femoral artery and vein using aseptic conditions in rats anesthetized with 1% halothane 24 hours beforehand. The free ends of the cannulas were tunneled under the skin and externalized at the back of the neck.
(§2) Conscious rats were divided into five groups. Group I (n=4 SHR and 4 WKY) received an i.v. injection of 0.9% NaCl. Group II (n=4 SHR and 4 WKY) was given an i.v. injection of enalaprilat (MK-422,2 mg/kg). Group III (n=4 SHR and 4 WKY) was injected with (N-{N-[1-(S)-carboxy-3-phenylpropyl]-(S)-phenylalanyl}-(S)-isoserine) at a dose of 15 mg/kg. […] Group IV (n=4 SHR and 4 WKY) received both MK-422 (2 mg/kg) and SCH 39,370 (15 mg/kg). Group V (n=3 SHR and 3 WKY) were given MK- 422 (2 mg/kg) and Z-prolyl-prolinal (5 mg/kg), a specific inhibitor of prolyl endopeptidase (Friedman TC, Orlowski M, Wilk S: Prolyl Endopeptidase: Inhibition in vivo by N-benzyloxycarbonyl-prolyl-prolinal. J. Neurochem. 42:237-241,1984). Either saline (vehicle) or the enzyme inhibitors were administered 20 minutes before an i.v. injection of 0.2 ml of Ang I (2 nmol) in heparinized saline. Serial samples of arterial blood (0.2 ml) were rapidly collected into ice-chilled tubes containing 5 ml of 80% ethanol/0.1N HCL every 15-30 sec before and after injection of Ang I. The amount of blood removed in each sample was replaced with an equal volume of saline. The dead space (0.08 ml) of the femoral artery catheter was cleared of any remaining saline or blood before obtaining the samples.
(§3) Peptide Extraction and Analyses: Samples were centrifuged at 5,000 g for 20 minutes; the supernatant was stored for 12 hours at -20° C. After a second centrifugation step (10,000 g, 20 min) the supernatant was diluted 1:1 (V:V) with 1% heptaflurobutyric acid (HFBA), stored for 4-6 […] hours at 4° C., and centrifuged again at 15,000 g. This supernatant was further diluted 1:4 with 0.2% HFBA and concentrated on a Sep-Pak Vac Cartridge (Millipore Co., Milford, Mass.) activated beforehand with 3 ml of 60% acetonitrile/0.2% HFBA, 3 ml of 0.1% bovine serum albumin in 0.2% HFBA, and 5 ml of HFBA. After application of the supernatant, the column was washed with 10 ml of 0.2% HFBA. Angiotensin peptides were eluted with 8 ml of 60% acetonitrile/0.2% HFBA. Fractions were evaporated to dryness in a vacuum centrifuge (Savant Instrument Inc., Hicksville, N.Y.) for measurements by radioimmunoassay (RIA). Different aliquots of the samples were assayed to ensure linearity. Peptide recovery for Ang I added to the acid ethanol solution prior to blood sample averaged 85±4%, n=6, SFM): peptide values were not corrected for recovery. Moreover, no in vitro conversion of Ang I into either Ang-(1-7) or Ang II was observed.
(§4) The RIAs employed by the inventors to determine concentrations of Ang I, Ang II, and Ang-(1-7) are described in detail elsewhere. See, Chappell MC, Brosnihan KB, Diz DI, Ferrario CM: Identification of Angiotensin-(1-7) in Rat Brain: Evidence for Differential Processing of Agiotensin Peptides. J. Biol. Chem. […]:16518-16523,1989; and, Kohara K, Brosnihan KB, Chappell MC, Khosla MC, Ferrario CM: Angiotensin-(1-7): A Member of Circulating Angiotensin Peptides. Hypertension 17:131-138, 1991. […] The sensitivity of the Ang I assay (defined as twice the minimum detection level) averaged 5 fmol/tube. The Ang II antibody was produced by the inventors. […] The sensitivity of the Ang II RIA is 0.5 fmol/tube. The antibody of Ang-(1-7) (Core No. 1) was obtained in the inventors laboratory. […]

[4] = tested on: spontaneously hypertensive rats (SHR); experiment: Blood angiotensin peptides (RIA) after i.v. Ang I in conscious SHR with enzyme inhibitors; type: in vivo, rat; conditions: SHR
Description: as §1, §2, §3, §4

[5] = tested on: brain punch homogenate from the A2 region; type: biochemical, dog; conditions: pH 7.5
Text: To study the metabolism of angiotensin in brain punch homogenates, ^125 I-labelled Ang I and Ang II (New England Nuclear, Boston, Mass., USA) were purified initially to remove the peptidase inhibitor trasylol by reverse phase high performance liquid chromatography (HPLC) using a Nova-Pak C column (Waters Associates, Milford, Mass., USA). Peptides were eluted isocratically with 33.6% acetonitrile (Burdick and Jackson, American Scientific Products, Columbus, Ohio, USA) in 0.13% heptafluorbutyric acid (HFBA; Sequenal grade, Pierce, Rockford, Ill., USA) at a flow rate of 1 ml/min. The effluent (0.25 ml/fraction) was collected in tubes precoated with bovine serum albumin (BSA; Pentex, Miles Scientific, Naperville, Ill., USA). After evaporation in a vacuum centrifuge (Savant, Farmingdale, N.Y., USA), the purified peptides were redissolved in water.
The metabolism of ^125 I-Ang I and ^125 I-Ang II was studied by incubating 10 μl of brain homogenates with 190 μl of an assay solution containing 50 pM labelled standards in 20 mM Tris HCl buffer, pH 7.5, and 0.01% BSA for 2 to 15 minutes at 37° C. The reactions were stopped by the addition of 100 μl of 32% acetonitrile containing 0.13% HFBA, followed by centrifugation at 18,000 g for 2 minutes. […]

Compound: C[C@H](N[C@@H](CCc1ccccc1)C(=O)O)C(=O)N1CCC[C@H]1C(=O)O [MK 422, enalaprilat]
- ACE activity in homogenates from the choroid plexus [1]: 14.9±0.6 U
- ACE activity in other regions of the brainstem [1]: did not change
- ACE activity in the A2 region (between -2 and +4 mm of the obex) ([1]; untreated controls 22.5±1.6 U): 16.7±1.7 U
- inhibition at 10 µM [2]: 98%
- increase of peak Ang-(1-7) over values found in control rats ([3]; MK-422 2 mg/kg): two-fold
- Ang II formation / production ([3]; after Ang I 2 nmol i.v.): eliminated
- increase of peak Ang-(1-7) over values found in control rats ([4]; MK-422 2 mg/kg): three-fold
- Ang II formation / production ([4]; after Ang I 2 nmol i.v.): eliminated

Compound: ^125 I-Ang II: 125I-labelled Ang II used as substrate (DRVYIHPF; also: 125I label; UniProt P01019 25-32, looked up)
- major / primary metabolic product of the labelled peptide [5]: Ang-(1-7)
